Results taken from patent publication US20240018132A1, “5-HYDROXY-1,4-NAPHTHALENEDIONE FOR USE IN THE TREATMENT OF CANCER” (GODAVARI BIOREFINERIES LIMITED, priority 2020, published 2024).

What was measured:
[1] = tested on: PC3; assay: In vitro sphere-forming assay (cancer stem cells), Prostosphere media; conditions: for 3D sphere count of PC3: Prostosphere media, 2000 cells/well, n = 6 ± S.D
Procedure: (§4) In Vitro Sphere-forming Assay: Sphere assay measures the ability of cancer stem cells (CSCs) to form spheres in specially designed serum-free medium.
Prostosphere Media Preparation (For 100 mL):1 g methyl cellulose autoclaved with magnetic stirrer, 100 mL plain media (Prostate Epithelial Basal Medium) was added and dissolved, under magnetic stirring. After complete dissolution, Insulin-40 μL, B27-2 mL, EGF-80 μL, Penstrep-1 ml was added.
(§5) Procedure—The cells were trypsinised and made into single-cell suspension by passing through cell strainers (100 μl and 40 μl, respectively), The cells were diluted at a concentration of 2000 cells/100 μL and suspended in either Mammosphere (for breast cell lines) or Prostosphere (for prostate cell lines). 100 μL of this suspension was added into each well of 96-well suspension plates and incubated at 37° C., 5% CO2 for 24 hrs. Appropriate concentrations of the drugs (2 μL) were added into respective wells with 100 μL of stem cell culture medium. Plates were incubated at 37° C., 50 CO2 for 72 hrs. After incubation, 2.5 μL of the respective drug concentration and 50 μL of stem cell culture medium were added into each well and the plates were further incubated at 37° C., 50% CO2 for 72 hrs. 3 μL of the respective drug concentration was added with 50 μL of stem cell culture medium again after incubation and plates were reincubated for 72 hrs at 37° C., 50 CO2. Number of primary spheres formed for each concentration were counted. The spheres were converted to 0 viability of spheres compared to untreated (Growth Control with DMSO, GCD).

[2] = tested on: MDAMB231; assay: In vitro sphere-forming assay (cancer stem cells), Mammosphere media; conditions: for 3D sphere count of MDAMB231: Mammosphere media, 2000 cells/well, n = 6 ± S.D
Procedure: as §4
Mammosphere Media Preparation (For 100 mL): 1 g methyl cellulose autoclaved with magnetic stirrer, 100 ml plain media (MEBM) was added and dissolved under magnetic stirring. After complete dissolution FGF-80 μL, EGF-40 μL, Penstrep-1 mL, Heparin-400 μL was added.
as §5

[3] = tested on: MDAMB231; assay: In vitro antiproliferative assay (MTT assay), breast cancer cell line; format: cell-based; conditions: Homo sapiens, MDA-MB-231, 48 h, MTT assay, breast cancer MDAMB231, 48 hrs drug incubation
Protocol: (§1) MTT assay is a simple and sensitive assay where, metabolic reducing activity of the cells is measured. The increase of this activity in time is taken as a parameter of cell growth. If treatment with a drug impairs this increase, the action is a consequence of growth inhibition, cell killing or both. […] All cell lines were cultured in a 37° C. incubator with a 5% CO2 environment. Compounds were dissolved in DMSO with a concentration of 0.1M (stock solution). Cells were seeded into 96-well plates at suitable plating efficiency.
(§2) Following plating efficiencies were standardized for MTT assay:
(§3) In the MTT procedure, the cells were plated in 96 well plates as per predetermined plating efficiency (Table1). The plates were then incubated for 24 hrs in 5% CO2 atmosphere at 37° C. Appropriate concentrations of the drugs were then added to the plate and further incubation was carried out for 48 hrs (in 5% CO2 atmosphere at 37° C.). The assay plate was then centrifuged twice at 3000 rpm for 3 mins and supernatant was then discarded. 100 ul of MTT solution (0.5 mg/ml) was then added to each well of the plate and it was further incubated for 4 hrs (in 5% CO2 atmosphere at 37° C.) Following 4 hr incubation, the plate was then centrifuged twice, and supernatant was aspirated off very carefully. 200 ul of DMSO was then added to each well to solubilize. MTT crystals and mixed well by shaking the plate. XY graph of log percent viability was then plotted against log drug concentration.

[4] = tested on: PC3; assay: In vitro antiproliferative assay (MTT assay), prostate cancer cell line; format: cell-based; conditions: Homo sapiens, PC-3, 48 h, MTT assay, prostate cancer PC3, 48 hrs drug incubation
Protocol: as §1, §2, §3

[5] = tested on: Human lymphocytes; assay: Lymphocyte assay (MTT on normal cells); format: cell-based; conditions: Lymphocyte; human peripheral blood lymphocytes, MTT procedure
Protocol: Human lymphocytes were isolated from the peripheral blood. A pure population of lymphocytes was obtained based on differential centrifugation, in which diluted defibrinated blood was layered on a solution of sodium diatrizoate and polysucrose (HiSep LSM 1077) and centrifuged at low speeds for 30 mins.
Procedure: The separation of lymphocytes from fresh defibrinated blood was performed by the procedure described below: • 1. Diluted defibrinated fresh blood was overlaid gradually on (HiSeP LSM1077) and centrifuged at low speed for 30 mins. • 2. The lymphocyte layer (the buffy coat) was carefully removed in a new collection tube. • 3. The buffy coat was given another wash, by the diluent buffer Dulbecco's phosphate buffered saline (D.P.B.S) • 4. The supernatant was discarded and the pellet was resuspended in D.P.B.S. • 5. The viability of cells was checked by Haemocytometer. • 6. Cells with purity and viability of more than 95% were taken for the experiment. • 7. Purified lymphocytes were diluted at a concentration of 0.7 million/ml with sterile D.P.B.S and MTT procedure was performed exactly as described earlier.

[6] = Homo sapiens, PC-3, read-out: % Viability of spheres (PC3)
[7] = Homo sapiens, MDA-MB-231, read-out: % Viability of spheres (MDAMB231)

SMILES | IC50 [3] [nM] | IC50 [4] [nM] | viability at 0.025 µM [1, 6] [%] | viability at 0.25 µM [1, 6] [%] | viability at 2.5 µM [1, 6] [%] | viability at 25 µM [1, 6] [%] | 3D sphere count of PC3 ([1]; drug 0.025 uM) | 3D sphere count of PC3 ([1]; drug 0.25 uM) | 3D sphere count of PC3 ([1]; drug 2.5 uM) | 3D sphere count of PC3 ([1]; drug 25 uM) | viability at 0.025 µM [2, 7] [%] | viability at 0.25 µM [2, 7] [%] | viability at 2.5 µM [2, 7] [%] | viability at 25 µM [2, 7] [%] | 3D sphere count of MDAMB231 ([2]; drug 0.025 uM) | 3D sphere count of MDAMB231 ([2]; drug 0.25 uM) | 3D sphere count of MDAMB231 ([2]; drug 2.5 uM) | 3D sphere count of MDAMB231 ([2]; drug 25 uM) | viability at 0.0025 µM [1, 6] [%] | 3D sphere count of PC3 ([1]; drug 0.0025 uM) | also measured
O=C1C(c2ccc3c(c2)OCO3)=CC(=O)c2c(OCCCC(=O)N3CCOCC3)cccc21 [Formula 69] | 2750 | 2120 | 65 | 49 | 35 | 21 | 53(±3) | 40(±2) | 29(±2) | 17(±3) | 70 | 57 | 35 | 19 | 58(±3) | 47(±3) | 29(±3) | 16(±2) | 93 | 76(±3) | viability at 0.0025 µM [2, 7]: 86%; 3D sphere count of MDAMB231 ([2]; drug 0.0025 uM): 71(±3); IC50 [5]: 12100 nM
O=C(O)CCCOc1cccc2c1C(=O)C=C(Nc1ccc3c(c1)OCO3)C2=O [Formula 70] | 3020 | 2230 | 67 | 50 | 41 | 31 | 55(±2) | 41(±3) | 34(±4) | 25(±3) | 74 | 62 | 41 | 24 | 61(±3) | 51(±3) | 34(±3) | 20(±2) | 95 | 78(±2) | viability at 0.0025 µM [2, 7]: 86%; 3D sphere count of MDAMB231 ([2]; drug 0.0025 uM): 71(±3); IC50 [5]: 5410 nM
O=C1C(Oc2ccc(F)cc2)=CC(=O)c2c(OCCCN3CCOCC3)cccc21 [Formula 78] | 5500 | 3460 | 68 | 53 | 41 | 30 | 55(±3) | 43(±3) | 33(±3) | 24(±4) | 67 | 57 | 46 | 35 | 65(±5) | 52(±4) | 42(±4) | 32(±3) | 81 | 65(±4) | viability at 0.0025 µM [2, 7]: 87%; 3D sphere count of MDAMB231 ([2]; drug 0.0025 uM): 79(±3)

Stronger by IC50 [3], values ahead:

IC50 [3] [nM] | IC50 [4] [nM] | SMILES | viability at 0.025 µM [1, 6] [%] | viability at 0.25 µM [1, 6] [%] | viability at 2.5 µM [1, 6] [%] | viability at 25 µM [1, 6] [%] | 3D sphere count of PC3 ([1]; drug 0.025 uM) | 3D sphere count of PC3 ([1]; drug 0.25 uM) | 3D sphere count of PC3 ([1]; drug 2.5 uM) | 3D sphere count of PC3 ([1]; drug 25 uM) | viability at 0.025 µM [2, 7] [%] | viability at 0.25 µM [2, 7] [%] | viability at 2.5 µM [2, 7] [%] | viability at 25 µM [2, 7] [%] | 3D sphere count of MDAMB231 ([2]; drug 0.025 uM) | 3D sphere count of MDAMB231 ([2]; drug 0.25 uM) | 3D sphere count of MDAMB231 ([2]; drug 2.5 uM) | 3D sphere count of MDAMB231 ([2]; drug 25 uM) | viability at 0.0025 µM [1, 6] [%] | 3D sphere count of PC3 ([1]; drug 0.0025 uM) | also measured
656 | 579 | O=C1C(c2ccc3c(c2)OCO3)=CC(=O)c2c(OCCN3CCOCC3)cccc21 [Formula 1, 5-(2-morpholinoethoxy)-2-(benzo[d][1,3]dioxol-6-yl)naphthalene-1,4-dione] | 80 | 62 | 45 | 30 | 65(±3) | 51(±3) | 37(±3) | 25(±3) | 83 | 62 | 44 | 31 | 64(±5) | 48(±4) | 34(±4) | 24(±4) | – | – | viability at 250 µM [1, 6]: 16%; 3D sphere count of PC3 ([1]; drug 250 uM): 13(±3); viability at 250 µM [2, 7]: 13%; 3D sphere count of MDAMB231 ([2]; drug 250 uM): 10(±2); IC50 [5]: 1490 nM
502 | 527 | O=C1C=C(Oc2ccc3c(c2)OCO3)C(=O)c2c(OCCN3CCOCC3)cccc21 [Formula 79, 8-(2-morpholinoethoxy)-2-(benzo[d][1,3]dioxol-6-yloxy)naphthalene-1,4-dione] | 57 | 43 | 30 | 20 | 55(±3) | 43(±3) | 33(±3) | 24(±4) | 56 | 39 | 26 | 19 | 51(±3) | 35(±3) | 24(±3) | 17(±3) | 78 | 65(±4) | viability at 0.0025 µM [2, 7]: 76%; 3D sphere count of MDAMB231 ([2]; drug 0.0025 uM): 69(±3)
352 | 482 | O=C1C=C(Oc2ccc(F)cc2)C(=O)c2c(OCCN3CCOCC3)cccc21 [Formula 80, 8-(2-morpholinoethoxy)-2-(4fluorophenoxy)naphthalene-1,4-dione] | 56 | 37 | 27 | 17 | 45(±3) | 30(±2) | 22(±4) | 14(±3) | 53 | 39 | 23 | 15 | 48(±3) | 35(±4) | 21(±3) | 14(±4) | 73 | 59(±3) | viability at 0.0025 µM [2, 7]: 75%; 3D sphere count of MDAMB231 ([2]; drug 0.0025 uM): 68(±4)
